Assay results from patent US9315522B2, “Antibacterial compounds” (JANSSEN SCIENCES IRELAND UC, priority 2012, dated 2016).
≈ marks a conversion by molar mass, not a printed value.

Assays:
[1] = target: T1, S. aureus ATCC 29213 FabI (Staphylococcus aureus, UniProt Q6GI75); assay: Staphylococcus aureus FabI enzyme inhibition assay; type: biochemical; settings: read-out: FabI (300.235) IC50 (converted)
T1 sequence (Q6GI75 1-256): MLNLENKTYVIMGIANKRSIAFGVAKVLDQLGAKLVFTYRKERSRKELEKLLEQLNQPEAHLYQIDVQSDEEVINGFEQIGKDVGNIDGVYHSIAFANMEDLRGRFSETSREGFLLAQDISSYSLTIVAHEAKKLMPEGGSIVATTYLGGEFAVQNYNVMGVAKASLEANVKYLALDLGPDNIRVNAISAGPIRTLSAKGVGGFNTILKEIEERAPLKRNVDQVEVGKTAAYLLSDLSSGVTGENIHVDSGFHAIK
Method: Y.1 FabI Enzyme Inhibition: Staphylococcus aureus FabI Enzyme Inhibition Assay
FabI enzyme inhibition assays were carried out in half-area, 384-well microtitre plates. Compounds were evaluated in 40-μl assay mixtures containing 100 mM NaADA, pH 6.5 (ADA=N-[2-acetamido]-2iminodiacetic acid), 250 μM crotonoyl-CoA, 625 μM NADH and 50 μg/ml S. aureus ATCC 29213 FabI. Inhibitors were typically varied over the range of 50 to 0.39 μM. The reaction mixtures were incubated for 30 minutes at room temperature and the reaction was stopped by adding 200 mM Tris buffer (pH 9.0) to create a pH-shift. The consumption of NADH was monitored by measuring the change in absorbance at […]. By comparing sample readings to those of negative (absence of compound) and positive (absence of enzyme) controls, the percent inhibition of enzymatic activity of the compounds was determined A best-fit curve is fitted by a minimum of squares method. From this an IC50-value (expressed in μg/ml), resulting in 50% inhibition of enzymatic activity, was obtained.

[2] = test system: Staphylococcus aureus ATCC 29213; assay: Antibacterial susceptibility testing, IC90 determination (STA); type: cell-based; settings: resazurin; for IC90: Staphylococcus aureus, ATCC29213, Staphylococcus aureus ATCC 29213, broth microdilution, read-out: STA (361.159) IC90
Method: (§1) The following bacteria were used: Staphylococcus aureus ATCC 29213, methicillin-resistant Staphylococcus aureus (MRSA) ATCC 700788 and Escherichia coli ATCC 35218. The bacteria used in this study were grown overnight in flasks containing 100 ml Mueller-Hinton broth (Difco cat. nr. 0757-17) in sterile de-ionized water, with shaking, at 37° C. Stocks were store at −70° C. until use.
(§2) Bacteria were incubated on a tryptic soy agar plate containing 5% sheep blood (Becton Dickinson cat. nr. 254053) for 18-24 hours at 35° C. in aerobic conditions (first passage). For the second passage, fresh Mueller-Hinton broth is inoculated with 5-10 colonies and grown overnight at 35° C. until turbidity (reaching log-phase) in aerobic conditions is reached. The bacterial suspension is then adjusted to 0.5 McFarland density and further diluted 1:100 in Mueller Hinton broth medium. This is used as inoculum.
The result(s) are depicted the table below (for STA ATCC 29213).
(§3) MIC assays were performed by the broth microdilution method in a 96-well format (flat-bottom microtitre plates) with a final volume of 0.1 ml Mueller Hinton broth containing two-fold serial dilutions of compounds and inoculated with 5×10^5 CFU/ml of bacteria (standard inoculum size according to CLSI guidelines). Inhibitors are typically varied over the range of 63 to 0.49 μM. The final DMSO concentration in the assay was 1.25% (maximum tolerable DMSO concentration=6%). In the assays where the effect of human serum on the activity of the compounds against S. aureus was tested, human serum was added at a final concentration of 10%. The plates were incubated at 35° C. for 16-20 hours. At the end of incubation the bacterial growth was quantified fluorometrically. For this, resazurin was added to all wells and the plates were re-incubated. The incubation time is dependent on the type of bacteria. A change in color from blue to pink indicated the growth of bacteria. The fluorescence was read in computer-controlled fluorometer (Fluoroskan Ascent FL, Labsystems) at an excitation wavelength 540 nm and an emission wavelength of 590 nm. The % growth inhibition achieved by the compounds was calculated according to standard methods. The IC90 (expressed in μg/ml) was defined as the 90% inhibitory concentration for bacterial growth. A panel of reference compounds were simultaneously tested for QC approval.

[3] = test system: S. aureus; assay: Antibacterial susceptibility testing, IC90 determination with 10% human serum (STA + 10% HS); type: cell-based, Staphylococcus aureus; settings: Staphylococcus aureus, human serum at final concentration of 10%, read-out: STA + 10% HS (361.169) IC90
Method: as §1, §2, §3
The results are depicted in the table(s) below (STA+10% HS).

[4] = Cytotoxicity MTT assay (HELAM); type: cell-based, Human; settings: human, HelaM cells, read-out: HELAM (222.125) CC50
Method: Cytotoxicity of the compounds was evaluated using the MTT assay. Human HelaM cells grown in 96-well plates were exposed to serial dilutions of the tested compounds (final volume of 0.2 ml) and incubated for 72 hours at 37° C. and 5% CO2. Inhibitors are typically varied over the range of 25 to 0.8 μM. The final DMSO concentration in the assay is 0.5%. MTT (3-(4,5-Dimethylthiazol-2-yl)-2,5-diphenyltetrazolium bromide, a tetrazole) was added and reduced to purple formazan only in living cells. Solubilization of the formazan crystals was achieved by adding 100 μl 2-propanol. Cell viability was determined by measuring the absorbance of the reduced formazan, giving a purple color, at 540 nm and 690 nm. The absorbance measured at 690 nm was automatically subtracted from the absorbance at 540 nm, to eliminate the effects of non-specific absorption. The percent cytotoxicity achieved by the compounds was calculated according to standard methods. Cytotoxicity is reported as CC50, the concentration that causes a 50% reduction in cell viability.
The results are depicted in the table(s) below (HELAM).

Row | Structure (SMILES) | IC50 [1] [nM] | IC90 [2] [µg/mL] | IC90 [3] [µg/mL] | CC50 at 72 h [4] [µg/mL] | melting point [°C] | STA (361.159) IC90 ([2]; Staphylococcus aureus ATCC 29213, broth microdilution) [µg/mL]
1 | O=C1CNCc2cc(/C=C/C(=O)N3CC4C=C(c5ccncc5)CC4C3)cnc2N1 (stereo not drawn) [compound 52] | 971 | 0.37 (≈ 0.922 µM) | 0.35 | > 10.1 | > 260 | 
2 | O=C1COCc2cc(/C=C/C(=O)N3CC4C=C(c5ccncc5)CC4C3)cnc2N1 (stereo not drawn) [compound 54] | 1020 | 0.38 (≈ 0.944 µM) | 0.35 | > 10.1 | 154 | 
3 | O=C1Nc2ncc(/C=C/C(=O)N3CC4C=C(c5ccncc5)CC4C3)cc2CO1 (stereo not drawn) [compound 55] | 927 | 0.76 (≈ 1.96 µM) | 0.71 | > 9.76 | 156 | 
4 | Cn1nccc1C1=CC2CN(C(=O)/C=C/c3cnc4c(c3)COCC(=O)N4)CC2C1 (stereo not drawn) [compound 56] | 1180 | 1.51 (≈ 3.72 µM) | 1.44 | > 10.2 | 149 | 
5 | Cn1nccc1C1=CC2CN(C(=O)/C=C/c3cnc4c(c3)CNCC(=O)N4)CC2C1 (stereo not drawn) [compound 57] | 939 | 1.54 (≈ 3.81 µM) | 1.52 | > 10.2 | 228 | 
6 | CN1CC(=O)Nc2ncc(/C=C/C(=O)N3C[C@@H]4CN(c5ccccc5)C[C@@H]4C3)cc2C1 [compound 58] | 1700 | 3.39 (≈ 8.12 µM) | 3.13 | > 10.5 | 178.9 to 179.8 | 
7 | COc1ccccc1N1C[C@H]2CN(C(=O)/C=C/c3cnc4c(c3)CN(C)CC(=O)N4)C[C@H]2C1 [compound 59] | 2230 | 3.39 (≈ 7.57 µM) | 3.17 | > 11.2 | 114 | 
8 | CC(C)C1Oc2cc(/C=C/C(=O)N3CC4C=C(c5ccccc5)CC4C3)cnc2NC1=O (stereo not drawn) [compound 63] | 1420 | < 0.21 | 0.36 | > 10.8 | 224.9 | 
9 | CC(C)C1Oc2cc(/C=C/C(=O)N3CC4C=C(c5nccs5)CC4C3)cnc2NC1=O (stereo not drawn) [compound 64] | 825 | < 0.21 | < 0.21 | > 11 | 223.55 | 
10 | CC(C)C1Oc2cc(/C=C/C(=O)N3CC4C=C(c5ccncc5)CC4C3)cnc2NC1=O (stereo not drawn) [compound 65] | 859 | < 0.21 | < 0.21 | > 10.8 | 113.11 | 
11 | O=C1CNC(=O)c2cc(/C=C/C(=O)N3CC4C=C(c5ccccc5)CC4C3)cnc2N1 (stereo not drawn) [compound 66] | 651 | 0.76 (≈ 1.83 µM) | 0.79 | > 10.4 | 226 | 
12 | O=C1Nc2ncc(/C=C/C(=O)N3CC4C=C(c5ccsc5)CC4C3)cc2CN2CCOCC12 (stereo not drawn) [compound 70] | 1450 | 0.17 (≈ 0.368 µM) | 0.2 | > 11.6 | > 250 | 
13 | CC(=O)N1CCN2Cc3cc(/C=C/C(=O)N4CC5C=C(c6cccs6)CC5C4)cnc3NC(=O)C2C1 (stereo not drawn) [compound 75] | 1290 | < 0.25 | < 0.25 | > 12.7 | 215 to 230 | 
14 | O=C1Nc2ncc(/C=C/C(=O)N3CC4C=C(c5ccccc5)CC4C3)cc2C(=O)N2CCOCC12 (stereo not drawn) [compound 76] | 1230 | 0.25 (≈ 0.531 µM) | 0.41 | > 11.8 | 278.12 | 
15 | O=C1Nc2ncc(/C=C/C(=O)N3CC4C=C(c5ccccc5)CC4C3)cc2CN2CCSCC12 (stereo not drawn) [compound 77] | 1180 | 0.26 (≈ 0.55 µM) | 0.59 | 1.2 (≈ 2.54 µM) | 214 | 
16 | O=C1Nc2ncc(/C=C/C(=O)N3CC4C=C(c5ccccc5)CC4C3)cc2CN2CCOCC12 (stereo not drawn) [compound 78] | 1070 |  | < 0.22 | > 11.5 | 242 | 0.31
17 | O=C1Nc2ncc(/C=C/C(=O)N3CC4C=C(c5ccncc5)CC4C3)cc2CN2CCOCC12 (stereo not drawn) [compound 80] | 743 | 0.42 (≈ 0.918 µM) | 0.38 | > 11.5 | 212 | 
18 | CN1CCN2C(=O)c3cc(/C=C/C(=O)N4CC5C=C(c6ccccc6)CC5C4)cnc3NC(=O)C2C1 (stereo not drawn) [compound 82] | 993 | 0.45 (≈ 0.931 µM) | 0.43 | > 12.1 | > 270 | 
19 | CC(=O)N1CCN2C(=O)c3cc(/C=C/C(=O)N4CC5C=C(c6ccccc6)CC5C4)cnc3NC(=O)C2C1 (stereo not drawn) [compound 83] | 1230 | 0.48 (≈ 0.938 µM) | 0.47 | > 12.9 | 262 to 264 | 
20 | Cn1nccc1C1=CC2CN(C(=O)/C=C/c3cnc4c(c3)CN3CCOCC3C(=O)N4)CC2C1 (stereo not drawn) [compound 85] | 955 | 1.67 (≈ 3.63 µM) | 1.62 | > 11.6 | 226 | 
21 | O=C1CC2CCCCN2Cc2cc(/C=C/C(=O)N3C[C@@H]4CC(c5ccccc5)=C[C@@H]4C3)cnc2N1 (stereo partly drawn) [compound 90] | 832 | < 0.21 | < 0.21 | 4.4 (≈ 9.39 µM) | 214.9 to 232.7 | 
